Measurements from US8592576B2, “Unsymmetrical pyrrolobenzodiazepine-dimers for treatment of proliferative diseases” (Spirogen Sarl, priority 2008, dated 2013).

Legend:
A2780 parental cell line = assay: A2780 assay, in vitro cytotoxicity (MTT); type: cell-based; conditions: Homo sapiens, A2780 cells, 72 hours incubation, absorbance 540 nm
Procedure: (§1) Determination of In Vitro Cytotoxicity
A2780 parental cell line was grown in Dulbecco's Modified Eagles' Media (DMEM) containing ˜10% Foetal Calf Serum (FCS) and ˜1% 200 mM L-Glutamine solution and grown in Corning Cellbind 75 cm^2 flasks.
190 μl cell suspension was added (at 1×10^4) to each well of columns 2 to 11 of a 96 well plate (Nunc 96F flat bottom TC plate). 190 μl of media was added to each well of columns 1 and 12. The media was Dulbecco's Modified Eagles' Media (DMEM) (which included ˜10% Foetal Calf Serum (FCS) and ˜1% 200 mM L-Glutamine solution).
Plates were incubated overnight at 37° C. before addition of drug if cells were adherent. 200 μM of the test compound solutions (in 100% DMSO) were serially diluted across a 96 well plate. Each resulting point was then further diluted 1/10 into sterile distilled water (SDW).
To the cell negative blanks and compound negative control wells, 10% DMSO was added at 5% v/v. Assay plates were incubated for the following durations at 37° C. in 5% CO2 in a humidified incubator for 72 hours. Following incubation, MTT solution to a final concentration of […] was added to each well. Plates were then incubated for a further 4 hours at 37° C. in 5% CO2 in a humidified incubator. […]
Plates were read at 540 nm absorbance using an Envision plate reader. Data was analysed using Microsoft Excel and GraphPad Prism and IC50 values obtained.

[1] = test system: K562 human chronic myeloid leukaemia cells; assay: K562 assay, in vitro cytotoxicity (MTT); type: cell-based; conditions: drug incubation 1 hour or 96 hours (not specified which), dose reducing final optical density to 50% of control
Procedure: as §1
K562 human chronic myeloid leukaemia cells were maintained in RPM1 1640 medium supplemented with 10% fetal calf serum and 2 mM glutamine at 37° C. in a humidified atmosphere containing 5% CO2 and were incubated with a specified dose of drug for 1 hour or 96 hours at 37° C. in the dark. The incubation was terminated by centrifugation (5 min, 300 g) and the cells were washed once with drug-free medium. Following the appropriate drug treatment, the cells were transferred to 96-well microtiter plates (10^4 cells per well, 8 wells per sample). Plates were then kept in the dark at 37° C. in a humidified atmosphere containing 5% CO2. The assay is based on the ability of viable cells to reduce a yellow soluble tetrazolium salt, 3-(4,5-dimethylthiazol-2-yl)-2,5-diphenyl-2H-tetrazolium bromide (MTT, Aldrich-Sigma), to an insoluble purple formazan precipitate. Following incubation of the plates for 4 days (to allow control cells to increase in number by approximately 10 fold), 20 μL of MTT solution (5 mg/mL in phosphate-buffered saline) was added to each well and the plates further incubated for 5 h. […] The optical density was then read at a wavelength of 550 nm on a Titertek Multiscan ELISA plate reader, and a dose-response curve was constructed. […]

SMILES	IC50 (A2780 parental cell line) [µM]	IC50 [1] [µM]
COc1ccc(C2=CN3C(=O)c4cc(OC)c(OCCCOc5cc6c(cc5OC)C(=O)N5C=C(c7ccc(N)cc7)C[C@H]5C=N6)cc4N=C[C@@H]3C2)cc1 [Compound 11, (S)-2-(4-aminophenyl)-7-methoxy-8-(3-((S)-7-methoxy-2-(4-methoxyphenyl)-5-oxo-5,11a-dihydro-1H-pyrrolo[2,1-c][1,4]benzodiazepine-8-yloxy)propoxy)-1H-pyrrolo[2,1-c][1,4]benzodiazepine-5(11aH)-one]	11.7	
COc1ccc(C2=CN3C(=O)c4cc(OC)c(OCCCCCOc5cc6c(cc5OC)C(=O)N5C=C(c7ccc(N)cc7)C[C@H]5C=N6)cc4N=C[C@@H]3C2)cc1 [Compound 13, (S)-2-(4-aminophenyl)-7-methoxy-8-(5-((S)-7-methoxy-2-(4-methoxyphenyl)-5-oxo-5,11a-dihydro-1H-pyrrolo[2,1-c][1,4]benzodiazepine-8-yloxy)pentyloxy)-1H-pyrrolo[2,1-c][1,4]benzodiazepine-5(11aH)-one]		30
